Test results reported in paper PMC11494886, “Discovery and design of molecular glue enhancers of CDK12–DDB1 interactions for targeted degradation of cyclin K” (RSC Chemical Biology, 2024).
Read-outs that look alike come from different tables or passages of the source.

Tests used:
Cdk12/CycK and DDB1ΔB [1] = target: T1, Cdk12/CycK and DDB1ΔB (Homo sapiens, UniProt Q16531+Q9NYV4, DEL396-705); experiment: Analytical size-exclusion chromatography of DDB1ΔB and Cdk12/CycK; assay type: binding; conditions: 20 μM proteins, 60 μM compound, vs DMSO and THZ531
T1 construct: the Cdk12 (714–1063)/CycK (1–267) complex and the DDB1ΔB protein; made in house; host or cells: Sf9 insect cells (MultiBacTurbo)
Description: Analytical size-exclusion chromatography was employed to investigate compound-induced protein–protein interactions between the heterodimeric Cdk12 (714–1063)/CycK (1–267) complex and the RING E3 ligase-associated adaptor protein DDB1ΔB. The analysis was conducted on an Agilent 1260 Infinity II HPLC system (Agilent Technologies), coupled with a Superdex 200 Increase 3.2/300 column (Cytiva), pre-equilibrated in Cdk12 SEC buffer (20 mM Hepes pH 7.8, 400 mM NaCl, 1 mM TCEP) supplemented with 1 g L^−1 carboxymethyl-dextran. Purified proteins, combined in equimolar ratios (20 μM Cdk12/CycK and DDB1ΔB, respectively) were supplemented with 3-fold molar excess of small molecular compounds. The resulting protein mixtures were diluted to a final volume of 25 μL using the kinases SEC-buffer ensuring a final DMSO concentration of 2%, followed by an incubation period of 10 min. Upon injection into the analytical system, the chromatography was conducted at a controlled flow rate of 0.05 mL min^−1, with protein absorbance monitored at 280 nm wavelength. Peak fractions were collected drop by drop and subsequently subjected to analysis via dynamic light scattering (DLS) to assess their size distribution, along with SDS-PAGE analysis to determine the composition of the protein complex.

Cdk12/CycK and DDB1ΔB [2] = target: T1, Cdk12/CycK and DDB1ΔB; experiment: Dynamic light scattering of SEC peak fractions; assay type: binding; conditions: SEC peak middle fractions, vs negative controls
Description: To evaluate particle size distribution in liquid solution, dynamic light scattering was employed. Specifically, 10 μL fractions from the central region of peaks obtained in analytical size exclusion chromatography runs were analyzed. This analysis was performed using a DynaPro NanoStar 672 (Wyatt Technology) in a disposable DLS MicroCuvette (Wyatt Technology), while maintaining a constant temperature of 25 °C. Each measurement was conducted with an acquisition time of 3 s, and each data point depicted in the Results section represents the average of 20 individual DLS measurements. The hydrodynamic radius of the protein samples was determined using the processing and analysis software DYNAMICS.

Cdk12/CycK and DDB1ΔB [3] = target: T1, Cdk12/CycK and DDB1ΔB; experiment: GST pulldown assay, recruitment of DDB1ΔB to Cdk12/CycK; assay type: binding; conditions: GST-Cdk12/GST-CycK bait, 5 μM compound, vs DMSO
Description: The pulldown assay was utilized to identify drug-triggered protein–protein interactions involving the Cdk12 (714–1063)/CycK (1–267) complex and the DDB1ΔB protein. In this assay, purified GST-tagged Cdk12 construct complexed with GST-CycK was combined with equimolar amounts of His6-tagged DDB1ΔB (5 μM) in the presence of 5 μM of the respective small molecular compound in pulldown assay buffer (50 mM Hepes pH 7.4, 200 mM NaCl, 0.25 mM TCEP, 0.05% (v/v) Tween20), ensuring a 2% total DMSO concentration. Experimental controls included samples supplemented with 2% DMSO instead of compound as well as samples devoid of the GST-tagged Cdk12/CycK complex. Each sample was individually added to approximately 50 μL of pre-equilibrated glutathione agarose beads (Thermo Fisher Scientific). The bead suspensions were then subjected to a 2 h incubation period at room temperature with gentle agitation. After incubation, the beads were pelleted by centrifugation at 700 × g for 4 min, the supernatant was discarded, and the beads were washed three-times with 100 μL of pulldown assay buffer. Following the washing step, bound proteins were eluted from the beads with 50 μL of pulldown assay buffer supplemented with 10 mM GSH for 1 h at room temperature under rotation. Subsequently, the beads were again pelleted by centrifugation at 700 × g for 4 min and the resulting supernatants containing eluted protein fractions were mixed with 6 × SDS sample buffer at a 1 : 1 (v/v) ratio. The eluted protein samples were separated by SDS-PAGE and subjected to Coomassie brilliant blue staining for visualization and analysis.

HiBiT-tagged cyclin K = experiment: HiBiT cyclin K degradation assay (DC50, Dmax); assay type: cell-based; conditions: HiBiT-CCNK KI A549 cells, 2 hours, vs DMSO
Description: Next, we utilized HiBiT technology (Promega) for quantitative analysis of cyclin K degrader activity. […] Importantly, knockout of CDK12 using CRISPR/Cas9 protected cyclin K from SR-4835-induced degradation (Fig. 1D). We verified the depletion of CDK12 in HEK-293T cells (Fig. S3, ESI ^†).
The HiBiT-CCNK KI A549 cells (Promega) were seeded in 384 well plate and treated with the test compounds for 2 hours in a dose dependent manner. Nano-Glo® HiBiT Lytic Detection System (Promega) composed of the Nano-Glo® HiBiT Lytic Substrate, Nano-Glo® HiBiT Lytic Buffer and LgBiT Protein was used as per the manufacturer's instructions. Briefly, a 2× Nano-Glo® HiBiT Lytic Detection Reagent mixture was prepared by adding 20 μL of Nano-Glo® HiBiT Lytic Substrate and 10 μL of LgBiT protein per every 1 mL of Nano-Glo® HiBiT Lytic Buffer. After incubating the cells with the 2× Nano-Glo® HiBiT Lytic Detection Reagent mixture, luminescence was measured. HiBiT tagged cyclin K present at any given concentration was measured by normalizing the luminescence signal at that concentration to the luminescence signal from the DMSO (control) cells. The concentration necessary to achieve a 50% reduction in cyclin K levels (DC50) and the maximum achievable reduction in cyclin K levels (Dmax) was computed from this assay.

CDK12/cyclin K + DDB1 = target: T2, CDK12/cyclin K + DDB1 (Homo sapiens, UniProt Q16531+Q9NYV4, DEL396-705); experiment: Microscale thermophoresis, ternary complex formation; assay type: binding; conditions: MST
T2 construct: The kinase domain of human CDK12 (Uniprot: Q9NYV4; a.a; 715–1050); GST (N, cleaved yes); made in house; host or cells: Spodoptera frugiperda SF9 insect cells (Bac-to-Bac); CDK12/cyclin K co-infected with S. cerevisiae CAK1
Description: Finally, the capacity of small molecules to induce a ternary complex between CDK12/cyclin K and DDB1 in vitro was assessed by microscale thermophoresis (MST). Labeled DDB1ΔBPB was combined with purified CDK12/cyclin K, and fluorescence intensity was monitored with increasing compound concentrations.
Cell pellets were harvested 48 hours post infection via centrifugation and lysed in buffer A (50 mM Tris–HCl (pH 8.0), 200 mM NaCl, 10 mM imidazole, 0.5 mM tris(2-carboxyethyl) phosphine (TCEP)) supplemented with EDTA-free Pierce™ protease inhibitor tablet (Thermo Fisher Scientific). […] The concentrated protein at 2 mg mL^−1 was flash-frozen in liquid nitrogen and stored at −80 °C.
Full-length S. cerevisiae CAK1 (Uniprot: P43568) with an N-terminal His6 tag was subcloned into pFastBac 1 vector. […] The eluted CDK12/cyclin K complex was concentrated to 2 mg mL^−1, flash-frozen in liquid nitrogen and stored at −80 °C.
A protocol to assess ternary binding of molecular glues with CDK12/cycK and DDB1 by MST was established using published procedures for PROTAC interaction with bromodomains and E3 ubiquitin ligases.[38] His8-DDB1-ΔBPB was labeled with the MO-L018 Monolith™ His-tag Labeling Kit RED-tris-NTA 2nd Generation (NanoTemper Technologies) following the instruction manual. 100 nM dye was mixed with 200 nM DDB1 in 50 mM HEPES pH 7.5, 150 mM NaCl, 5% glycerol, 0.05% Tween, and incubated at room temperature for 30 min. […] MST traces were recorded using standard parameters: 5 s MST power off, 30 s MST power on and 5 s MST power off. Measurements were taken at −1 to 0 s (cold region) and 9–10 s (hot region). Data were analyzed using a fitting function derived from the law of mass action:1 [drawing 6] where f(c) is the fluorescence signal (Fnorm) at a given ligand concentration (c), B is Fnorm of fully liganded DDB1 at high ligand concentrations, U is Fnorm of DDB1 alone at low ligand concentrations, Kd is the dissociation constant or binding affinity, cT is the final concentration of DDB1 in the assay (Fig. 3G). For normalization, the data were first transformed using eqn (2) where y is the fraction bound, followed by fitting to eqn (3) (Fig. 5B–E).2 [drawing 7] 3 [drawing 8]

CDK12 = CDK12 (Homo sapiens, UniProt Q9NYV4); experiment: CDK12 functional (kinase inhibition) assay; assay type: biochemical; conditions: vs MR-1187
cyclin K = experiment: Immunofluorescence of nuclear cyclin K in MDA-MB-231 cells; assay type: cell-based, human; conditions: MDA-MB-231 cells, 0.5 µM, 2 h
Description: Cells were fixed with 4% PFA in PBS at room temperature, permeabilized with 0.1% Triton X-100 in PBS, and blocked with 3% BSA in PBS at room temperature. Cells were incubated with primary antibodies overnight at 4 °C, followed by incubation with Alexa-Fluor conjugated secondary antibodies for 1 hour at room temperature. Cell nuclei were stained using DAPI. Images were acquired on a confocal microscope (Leica). ImageJ and QuPath were used for image analysis.
Figure S8. Immunofluorescence staining for cyclin K degradation. MDA-MB-231 cells were
treated for 2 h with either DMSO or the indicated compounds (0.5 µM) . Cells were fixed and
Nuclei were stained with DAPI (blue). […]

T2 sequence (Q16531 with tags, fused parts or gaps DEL396-705): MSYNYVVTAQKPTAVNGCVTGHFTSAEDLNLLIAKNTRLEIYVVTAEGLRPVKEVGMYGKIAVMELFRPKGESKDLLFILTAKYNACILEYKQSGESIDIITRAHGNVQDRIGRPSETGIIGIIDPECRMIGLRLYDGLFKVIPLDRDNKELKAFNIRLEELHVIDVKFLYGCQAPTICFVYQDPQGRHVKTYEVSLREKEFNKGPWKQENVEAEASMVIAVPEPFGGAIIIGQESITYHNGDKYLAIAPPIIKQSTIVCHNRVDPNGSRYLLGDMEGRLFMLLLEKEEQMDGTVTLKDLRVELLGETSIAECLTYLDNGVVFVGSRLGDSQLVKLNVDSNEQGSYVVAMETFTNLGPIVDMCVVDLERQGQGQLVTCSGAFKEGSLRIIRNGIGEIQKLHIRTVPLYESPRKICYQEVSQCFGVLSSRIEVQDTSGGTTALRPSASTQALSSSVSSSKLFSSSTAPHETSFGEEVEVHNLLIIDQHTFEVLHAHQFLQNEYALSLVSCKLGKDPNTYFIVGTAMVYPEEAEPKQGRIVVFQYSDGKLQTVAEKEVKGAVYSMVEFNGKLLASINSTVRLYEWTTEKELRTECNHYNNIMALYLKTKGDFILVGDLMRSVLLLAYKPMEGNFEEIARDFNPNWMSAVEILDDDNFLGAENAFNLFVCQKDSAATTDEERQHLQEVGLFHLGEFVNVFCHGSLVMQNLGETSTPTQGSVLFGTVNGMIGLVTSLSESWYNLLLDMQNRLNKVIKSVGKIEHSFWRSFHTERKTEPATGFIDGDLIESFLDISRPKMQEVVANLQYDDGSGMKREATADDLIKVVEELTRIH
T2 sequence (Q9NYV4 715-1050, stated change not applied): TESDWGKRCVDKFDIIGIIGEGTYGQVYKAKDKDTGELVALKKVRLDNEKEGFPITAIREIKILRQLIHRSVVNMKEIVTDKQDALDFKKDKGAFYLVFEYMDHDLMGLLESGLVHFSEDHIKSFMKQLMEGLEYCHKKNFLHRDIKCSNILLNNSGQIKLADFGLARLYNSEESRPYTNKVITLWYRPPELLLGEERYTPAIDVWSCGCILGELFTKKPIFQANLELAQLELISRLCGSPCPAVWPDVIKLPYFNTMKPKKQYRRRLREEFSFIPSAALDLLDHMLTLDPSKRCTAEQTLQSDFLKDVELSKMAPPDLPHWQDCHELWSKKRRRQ
T2 sequence (O75909 11-267 partner limits assumed): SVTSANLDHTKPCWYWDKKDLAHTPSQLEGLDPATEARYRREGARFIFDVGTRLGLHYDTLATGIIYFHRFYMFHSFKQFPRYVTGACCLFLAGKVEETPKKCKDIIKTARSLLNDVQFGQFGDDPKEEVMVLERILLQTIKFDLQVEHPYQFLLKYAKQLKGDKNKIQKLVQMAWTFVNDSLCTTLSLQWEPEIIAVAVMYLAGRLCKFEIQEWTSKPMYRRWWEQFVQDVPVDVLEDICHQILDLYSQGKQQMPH
T1 sequence (Q9NYV4 714-1063, stated change not applied): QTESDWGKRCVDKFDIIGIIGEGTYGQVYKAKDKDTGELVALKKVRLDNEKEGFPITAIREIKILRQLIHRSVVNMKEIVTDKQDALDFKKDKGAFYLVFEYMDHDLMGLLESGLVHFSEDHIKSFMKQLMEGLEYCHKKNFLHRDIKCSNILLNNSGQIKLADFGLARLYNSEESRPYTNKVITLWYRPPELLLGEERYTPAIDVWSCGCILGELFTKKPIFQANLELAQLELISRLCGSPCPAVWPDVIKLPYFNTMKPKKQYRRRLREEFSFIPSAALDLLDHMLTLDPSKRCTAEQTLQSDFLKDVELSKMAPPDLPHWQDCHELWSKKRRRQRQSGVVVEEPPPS
T1 sequence (O75909 1-267 partner limits assumed): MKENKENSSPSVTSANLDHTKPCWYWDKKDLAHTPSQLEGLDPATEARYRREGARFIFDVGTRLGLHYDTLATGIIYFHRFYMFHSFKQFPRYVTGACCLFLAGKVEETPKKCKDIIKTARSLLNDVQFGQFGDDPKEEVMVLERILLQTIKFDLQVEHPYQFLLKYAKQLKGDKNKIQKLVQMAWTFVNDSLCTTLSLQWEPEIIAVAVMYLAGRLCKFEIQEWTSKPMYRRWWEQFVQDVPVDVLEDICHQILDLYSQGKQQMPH
T1 sequence (Q16531 with tags, fused parts or gaps DEL396-705): as the sequence (Q16531 with tags, fused parts or gaps DEL396-705) above
CDK12, sequence (Q9NYV4 whole entry): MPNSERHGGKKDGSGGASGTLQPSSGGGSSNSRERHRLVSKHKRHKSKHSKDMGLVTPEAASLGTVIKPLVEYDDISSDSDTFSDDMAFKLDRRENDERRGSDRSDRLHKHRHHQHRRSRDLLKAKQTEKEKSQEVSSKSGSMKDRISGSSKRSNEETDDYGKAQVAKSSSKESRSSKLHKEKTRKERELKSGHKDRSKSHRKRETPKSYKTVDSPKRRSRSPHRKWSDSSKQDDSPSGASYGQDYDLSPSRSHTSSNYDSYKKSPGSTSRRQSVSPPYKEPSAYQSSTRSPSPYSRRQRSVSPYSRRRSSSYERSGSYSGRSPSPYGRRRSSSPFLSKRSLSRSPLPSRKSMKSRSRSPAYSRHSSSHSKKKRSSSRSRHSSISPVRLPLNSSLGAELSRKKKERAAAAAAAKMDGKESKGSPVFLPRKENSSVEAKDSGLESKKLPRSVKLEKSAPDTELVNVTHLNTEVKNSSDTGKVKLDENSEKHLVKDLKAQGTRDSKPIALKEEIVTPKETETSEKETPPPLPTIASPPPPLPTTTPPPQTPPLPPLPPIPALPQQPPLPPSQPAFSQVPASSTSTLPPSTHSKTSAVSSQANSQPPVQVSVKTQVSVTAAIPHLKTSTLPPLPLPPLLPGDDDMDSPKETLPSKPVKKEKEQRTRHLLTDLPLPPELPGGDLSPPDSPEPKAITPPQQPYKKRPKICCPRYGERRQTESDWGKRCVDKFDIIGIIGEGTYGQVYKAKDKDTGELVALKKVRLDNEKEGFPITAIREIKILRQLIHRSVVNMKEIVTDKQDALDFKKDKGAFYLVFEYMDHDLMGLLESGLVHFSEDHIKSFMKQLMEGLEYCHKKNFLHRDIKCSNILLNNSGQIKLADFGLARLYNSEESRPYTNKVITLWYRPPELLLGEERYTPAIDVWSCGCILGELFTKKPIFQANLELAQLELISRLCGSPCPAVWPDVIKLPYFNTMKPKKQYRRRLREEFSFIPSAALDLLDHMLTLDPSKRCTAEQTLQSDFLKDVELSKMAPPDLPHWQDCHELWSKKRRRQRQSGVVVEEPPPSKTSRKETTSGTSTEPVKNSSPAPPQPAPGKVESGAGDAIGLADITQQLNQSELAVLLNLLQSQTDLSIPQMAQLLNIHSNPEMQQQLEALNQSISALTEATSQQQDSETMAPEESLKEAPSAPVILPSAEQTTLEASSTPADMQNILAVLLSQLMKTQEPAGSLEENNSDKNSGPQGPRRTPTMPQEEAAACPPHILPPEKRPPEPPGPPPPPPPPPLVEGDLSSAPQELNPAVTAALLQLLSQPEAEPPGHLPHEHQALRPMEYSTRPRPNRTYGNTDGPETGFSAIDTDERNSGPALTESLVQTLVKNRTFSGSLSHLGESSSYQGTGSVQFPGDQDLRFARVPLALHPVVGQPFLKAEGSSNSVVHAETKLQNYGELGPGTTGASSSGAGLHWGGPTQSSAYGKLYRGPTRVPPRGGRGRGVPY
CDK12, sequence (O75909 whole entry partner): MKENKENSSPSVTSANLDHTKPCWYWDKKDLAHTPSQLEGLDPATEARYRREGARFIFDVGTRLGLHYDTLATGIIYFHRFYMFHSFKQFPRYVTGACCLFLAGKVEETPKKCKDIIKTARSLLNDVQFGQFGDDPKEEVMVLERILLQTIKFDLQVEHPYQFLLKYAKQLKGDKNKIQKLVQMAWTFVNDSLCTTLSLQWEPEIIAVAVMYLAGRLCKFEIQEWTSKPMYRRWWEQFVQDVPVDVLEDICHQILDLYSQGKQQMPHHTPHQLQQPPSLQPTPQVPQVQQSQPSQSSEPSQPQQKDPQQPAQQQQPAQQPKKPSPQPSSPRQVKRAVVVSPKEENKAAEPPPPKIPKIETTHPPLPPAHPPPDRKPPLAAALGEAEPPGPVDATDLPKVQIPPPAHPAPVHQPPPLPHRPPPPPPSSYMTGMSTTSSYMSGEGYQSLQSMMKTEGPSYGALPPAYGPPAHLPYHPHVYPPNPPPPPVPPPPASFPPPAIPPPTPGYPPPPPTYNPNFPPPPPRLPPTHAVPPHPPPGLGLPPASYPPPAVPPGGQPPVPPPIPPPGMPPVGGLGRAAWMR

retention time in analytical SEC (ternary complex formation) (Cdk12/CycK and DDB1ΔB [1]) | hydrodynamic radius (DLS) (Cdk12/CycK and DDB1ΔB [2]) | recruitment of DDB1ΔB in pulldown (Cdk12/CycK and DDB1ΔB [3]) | Kd (CDK12/cyclin K + DDB1; labeled DDB1 + CDK12/cyclin K, run #1, read-out: Kd ternary complex formation, replicate #1) [nM] | Kd (CDK12/cyclin K + DDB1; labeled DDB1 + CDK12/cyclin K, run #2, read-out: Kd ternary complex formation, replicate #2) [nM] | Kd (CDK12/cyclin K + DDB1; labeled DDB1 + CDK12/cyclin K, run #3, read-out: Kd ternary complex formation, replicate #3) [nM] | Kd (CDK12/cyclin K + DDB1; labeled DDB1ΔBPB 10 nM + CDK12/cyclin K 1000 nM, mean of replicates, read-out: Kd ternary complex formation (average)) [nM] | fold better CDK12 kinase inhibition compared to MR-1187 (CDK12) [fold] | SMILES | Dmax (maximum reduction in cyclin K levels) (HiBiT-tagged cyclin K) [%] | cyclin K nuclear intensity compared to control (cyclin K)
reduced retention times | significantly increased | enrichment of DDB1ΔB fractions |  |  |  |  |  | CC[C@H](CO)Nc1nc(NCc2ccc(-c3ccccn3)cc2)c2ncn(C(C)C)c2n1 [CR8, reference compound] |  | 
 |  |  | 8.7 ± 2.7 | 10.3 ± 4 | 9.6 ± 3.3 | 9.5 | 35 | CCc1cnn2c(NCc3nc4cc(Cl)c(Cl)cc4[nH]3)cc(N3CCCC[C@H]3CCO)nc12 [MR-1226, (S)-2-(1-(7-(((5,6-Dichloro-1H-benzo[d]imidazol-2-yl)methyl)amino)-3-ethylpyrazolo[1,5-a]pyrimidin-5-yl)piperidin-2-yl)ethan-1-ol] | > 95 | reduced
